In article PMC10999543, “Identification of kinase modulators as host-directed therapeutics against intracellular methicillin-resistant Staphylococcus aureus” (Frontiers in Cellular and Infection Microbiology, 2024):
Like-named read-outs stand apart in the source and are kept apart here.

Columns and labels:
[1] = tested on: HeLa cells; assay: Compound screen by flow cytometry: HeLa cell count as surrogate readout of cell viability (z-scoreHeLa); format: cell-based, human; settings: for cell count rep 1 / z-scoreHeLa rep 1: replicate 1; for cell count rep 2 / z-scoreHeLa rep 2: replicate 2; for cell count rep 3 / z-scoreHeLa rep 3: replicate 3; for z-scoreHeLa mean: mean of 3 replicates
Method in brief: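 The viability surrogate was the count of fixed HeLa cells by flow cytometry, converted to z-scores against DMSO controls with values deviating two-fold excluded. Before counting, cells had been infected with MRSA for 1 h and cleared of extracellular bacteria with gentamicin. They were then exposed overnight to kinase inhibitors in triplicate.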

[2] = tested on: intracellular MRSA; format: cell-based, Staphylococcus aureus; settings: for %GFP+ rep 1 / z-scoreMRSA+ rep 1: replicate 1; for %GFP+ rep 2 / z-scoreMRSA+ rep 2: replicate 2; for %GFP+ rep 3 / z-scoreMRSA+ rep 3: replicate 3; for z-scoreMRSA+ mean: mean of 3 replicates
Method in brief: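 HeLa cells were infected with GFP-expressing MRSA (mean MOI 6.8) for 1 h, treated with 30 µg/ml gentamicin for 15 min, then incubated overnight at 37°C with kinase inhibitors and 5 µg/ml gentamicin. Flow cytometry gave % GFP-positive cells, with cell count as viability. Hits were z-score ≤ -2 (infection) and ≥ -3 (count) versus DMSO.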

[3] = PKIS compound screen raw data, HeLa cell count
[4] = compound screen, HeLa cell count
[5] = PKIS compound screen raw data, MRSA-infected HeLa cells
[6] = Yes/No: effect without cell death
[7] = compound screen, MRSA-infected HeLa cells
[8] = PKIS compound screen, HeLa cell count
[9] = PKIS compound screen, Yes/No call on z-scoreHeLa
[10] = PKIS compound screen, MRSA-infected HeLa cells
[11] = PKIS compound screen, Yes/No call (effect without cell death)
[12] = PKIS compound screen, Yes/No call on z-scoreMRSA+
[13] = PKIS compound screen, Yes/No call
[14] = PKIS compounds raw data, HeLa cell count
[15] = PKIS compounds raw data, MRSA-infected HeLa cells

Structure (SMILES) | cell count rep 1 [1, 3] | cell count rep 2 [1, 3] | cell count rep 3 [1, 3] | cell death ([1]; Yes/No call from z-scoreHeLa) | z-scoreHeLa mean [1, 4] | z-scoreHeLa rep 1 [1, 4] | %GFP+ rep 1 [2, 5] | %GFP+ rep 2 [2, 5] | %GFP+ rep 3 [2, 5] | z-scoreHeLa mean [1, 8] | z-scoreHeLa rep 1 [1, 8] | z-scoreHeLa rep 2 [1, 8] | z-scoreHeLa rep 3 [1, 8] | cell death [1, 9] | z-scoreMRSA+ mean [2, 10] | z-scoreMRSA+ rep 1 [2, 10] | z-scoreMRSA+ rep 2 [2, 10] | z-scoreMRSA+ rep 3 [2, 10] | hit [2, 11] | effect [2, 12] | other results
CS(=O)(=O)Cc1ccc(Nc2nccc(-c3c(-c4cccc(NC(=O)C5CCCCC5)c4)nn4ncccc34)n2)cc1 [GSK350559A] | 4919 | 4109 | 4941 | No | 0.0244 | 0.41 | 15.3% | 15.9% | 16.3% |  |  |  |  |  |  |  |  |  |  |  | z-scoreHeLa rep 2 [1, 4]: -0.15; z-scoreHeLa rep 3 [1, 4]: -0.19; effect ([2]; Yes/No call from z-scoreMRSA+): No; hit [2, 6]: No; z-scoreMRSA+ mean [2, 7]: -1.91; z-scoreMRSA+ rep 1 [2, 7]: -2.32; z-scoreMRSA+ rep 2 [2, 7]: -1.63; z-scoreMRSA+ rep 3 [2, 7]: -1.77
O=C(Nc1ccc(Oc2ccc3nc(NC(=O)c4ccco4)[nH]c3c2)cc1)Nc1cc(C(F)(F)F)ccc1F [GW683134A] | 24828 | 19604 | 15141 | No | -0.87 | -0.91 | 9.6% | 11.2% | 12.6% |  |  |  |  |  |  |  |  |  |  |  | z-scoreHeLa rep 2 [1, 4]: -0.97; z-scoreHeLa rep 3 [1, 4]: -0.74; effect ([2]; Yes/No call from z-scoreMRSA+): Yes; hit [2, 6]: Yes; z-scoreMRSA+ mean [2, 7]: -2.35; z-scoreMRSA+ rep 1 [2, 7]: -2.44; z-scoreMRSA+ rep 2 [2, 7]: -2.24; z-scoreMRSA+ rep 3 [2, 7]: -2.36
COc1cc2ncn(-c3cc(OCc4ccccc4C(F)(F)F)c(C(=O)N(C)C)s3)c2cc1OC [GSK1030062A] | 10049 | 31389 | 32107 |  |  |  | 17.3% | 19.4% | 19.3% | -1.17 | -1.53 | -0.63 | -1.34 | No | -0.02 | -0.18 | 0.26 | -0.15 | No | No | 
CC(C)(C)c1ccc2nccc(Nc3cccc(O)c3)c2c1 [GW856795X] | 35017 | 26624 | 35940 |  |  |  | 14.7% | 17.0% | 17.5% | 0.00181 | 2.26 | -1.52 | -0.73 | No | -0.72 | -1.00 | -0.46 | -0.70 | No | No | 
COc1cccc(NC(=O)NC2CCN(c3ccnc(Nc4cc(OC)c(OC)c(OC)c4)n3)C2)c1 (stereo not drawn) [GSK1379763A] | 25281 | 24740 | 24420 |  |  |  | 13.0% | 15.3% | 16.3% | 0.05 | -0.83 | -0.09 | 1.07 | No | -1.34 | -1.54 | -1.12 | -1.35 | No | No | 
COc1ccc(S(=O)(=O)NC2CCN(c3cc(C)nc(Nc4cccc(C#N)c4)n3)CC2)cc1 [GSK1653539A] | 25166 | 21326 | 16886 |  |  |  | 17.8% | 20.5% | 23.1% | -0.64 | -0.85 | -0.68 | -0.40 | No | 0.18 | -0.26 | 0.30 | 0.51 | No | No | cell death [1, 13]: No; z-scoreHeLa mean ([1]; PKIS compound screen): 0.33; z-scoreHeLa rep 1 ([1]; PKIS compound screen): 0.22; z-scoreHeLa rep 2 ([1]; PKIS compound screen): 0.92; z-scoreHeLa rep 3 ([1]; PKIS compound screen): -0.16; cell count rep 1 [1, 14]: 6417; cell count rep 2 [1, 14]: 7400; cell count rep 3 [1, 14]: 5350; effect [2, 13]: No; z-scoreMRSA+ mean ([2]; PKIS compound screen): 0.99; z-scoreMRSA+ rep 1 ([2]; PKIS compound screen): 0.85; z-scoreMRSA+ rep 2 ([2]; PKIS compound screen): 0.68; z-scoreMRSA+ rep 3 ([2]; PKIS compound screen): 1.43; %GFP+ rep 1 [2, 15]: 31.4%; %GFP+ rep 2 [2, 15]: 29.6%; %GFP+ rep 3 [2, 15]: 35.0%
Oc1ccc2ncnc(Nc3ccc(OCc4ccccc4)cc3)c2c1 [GI262866A] |  |  |  | No | 0.84 | 1.00 |  |  |  |  |  |  |  |  |  |  |  |  |  |  | cell count rep 1 [1, 14]: 5744; cell count rep 2 [1, 14]: 4904; cell count rep 3 [1, 14]: 6919; z-scoreHeLa rep 2 [1, 4]: 0.46; z-scoreHeLa rep 3 [1, 4]: 1.06; %GFP+ rep 1 [2, 15]: 22.5%; %GFP+ rep 2 [2, 15]: 22.3%; %GFP+ rep 3 [2, 15]: 21.5%; effect ([2]; Yes/No call from z-scoreMRSA+): No; hit [2, 6]: No; z-scoreMRSA+ mean [2, 7]: -0.31; z-scoreMRSA+ rep 1 [2, 7]: -0.65; z-scoreMRSA+ rep 2 [2, 7]: -0.0758; z-scoreMRSA+ rep 3 [2, 7]: -0.21
Nc1nccc2scc(-c3ccc4c(c3)CCN4C(=O)Cc3ccccc3)c12 [GSK2576924A] | 3006 | 3066 | 3447 | No | -1.02 | -0.97 | 25.5% | 24.3% | 22.9% |  |  |  |  |  |  |  |  |  |  |  | z-scoreHeLa rep 2 [1, 4]: -0.95; z-scoreHeLa rep 3 [1, 4]: -1.13; effect ([2]; Yes/No call from z-scoreMRSA+): No; hit [2, 6]: No; z-scoreMRSA+ mean [2, 7]: 0.22; z-scoreMRSA+ rep 1 [2, 7]: 0.05; z-scoreMRSA+ rep 2 [2, 7]: 0.41; z-scoreMRSA+ rep 3 [2, 7]: 0.21
COc1cc(C)c(N(C)C(=O)CN(C)C)cc1Nc1nc(Nc2cccc(F)c2C(N)=O)c2cc[nH]c2n1 [GSK2219385A] | 14421 | 25742 | 38560 |  |  |  | 15.2% | 16.3% | 17.5% | -0.95 | -0.86 | -1.69 | -0.31 | No | -0.74 | -0.84 | -0.67 | -0.70 | No | No | 
COC(=O)Nc1nc2ccc(Oc3ccc(NC(=O)Nc4cc(C(F)(F)F)ccc4F)cn3)cc2[nH]1 [GW681170A] | 5819 | 4937 | 6470 | No | 0.78 | 1.06 | 25.2% | 20.8% | 21.7% |  |  |  |  |  |  |  |  |  |  |  | z-scoreHeLa rep 2 [1, 4]: 0.49; z-scoreHeLa rep 3 [1, 4]: 0.78; effect ([2]; Yes/No call from z-scoreMRSA+): No; hit [2, 6]: No; z-scoreMRSA+ mean [2, 7]: -0.20; z-scoreMRSA+ rep 1 [2, 7]: -0.0173; z-scoreMRSA+ rep 2 [2, 7]: -0.44; z-scoreMRSA+ rep 3 [2, 7]: -0.15
Nc1ncc(-c2cccnc2)c2scc(-c3ccc4c(c3)CCN4C(=O)Cc3ccccc3)c12 [GSK683281A] | 22126 | 22399 | 35639 |  |  |  | 18.3% | 19.8% | 19.8% | -0.93 | 0.30 | -2.31 | -0.78 | No | 0.18 | 0.14 | 0.38 | 0.00377 | No | No | cell death [1, 13]: No; z-scoreHeLa mean ([1]; PKIS compound screen): 0.13; z-scoreHeLa rep 1 ([1]; PKIS compound screen): 0.36; z-scoreHeLa rep 2 ([1]; PKIS compound screen): 0.0122; z-scoreHeLa rep 3 ([1]; PKIS compound screen): 0.0253; cell count rep 1 [1, 14]: 6640; cell count rep 2 [1, 14]: 6026; cell count rep 3 [1, 14]: 5637; effect [2, 13]: No; z-scoreMRSA+ mean ([2]; PKIS compound screen): 0.38; z-scoreMRSA+ rep 1 ([2]; PKIS compound screen): 0.20; z-scoreMRSA+ rep 2 ([2]; PKIS compound screen): 0.70; z-scoreMRSA+ rep 3 ([2]; PKIS compound screen): 0.25; %GFP+ rep 1 [2, 15]: 28.1%; %GFP+ rep 2 [2, 15]: 29.7%; %GFP+ rep 3 [2, 15]: 28.6%
